Source: PubChem BioAssay (NCI)
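Test compounds were applied to cells in 96-well plates for 48 hours at 5 doses. Here, GI50 denotes the concentration required for 50% inhibition of growth. At the TGI there is no net growth.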 Where a SMILES comes first, the peptide text is derived from it. [ ]: non-standard residue; d: D form. The star is where a group is joined. Phe(4-NO2) = N[CH](Cc1ccc([N+](=O)[O-])cc1)C(=O)O; Boc = CC(C)(C)OC(=O)*

How the values were obtained:
Test in all cases: growth of human tumour cells (NCI), 48 h
[1] = test system: 786-0 renal
[2] = test system: BT-549 breast
[3] = test system: HCC-2998 colon
[4] = test system: MALME-3M melanoma
[5] = test system: MDA-MB-231 breast
[6] = test system: NCI-H23 lung
[7] = test system: NCI/ADR-RES ovarian
[8] = test system: SK-MEL-2 melanoma
[9] = test system: UACC-257 melanoma
[10] = test system: SR leukemia

Row | SMILES | TGI [1] [µM] | TGI [2] [µM] | TGI [3] [µM] | TGI [4] [µM] | TGI [5] [µM] | TGI [6] [µM] | TGI [7] [µM] | TGI [8] [µM] | TGI [9] [µM] | TGI [10] [µM] | GI50 [3] [µM] | GI50 [5] [µM] | GI50 [6] [µM] | GI50 [7] [µM] | GI50 [10] [µM] | GI50 [9] [µM] | GI50 [4] [µM] | GI50 [8] [µM] | GI50 [2] [µM]
1 | O=C1c2ccccc2C2(c3ccc(F)cc3)NCCN12 (stereo unspecified) | > 100 | > 100 | > 100 | > 100 | > 100 | > 100 | > 100 | > 100 | > 100 | – | – | – | – | – | – | – | – | – | –
2 | COC(=O)c1c2c(cc3c1CC1(Cc4cc5c(c(C)c4C1)CCC5)C3)CCC2 (stereo unspecified) | > 100 | – | > 100 | > 100 | > 100 | > 100 | > 100 | > 100 | > 100 | > 100 | – | – | – | – | – | – | – | – | –
3 | O=Nc1c(-c2c(O)[nH]c3ccc(I)cc23)[nH]c2ccccc12 | > 35.1 | > 59.3 | – | > 32.7 | 9.77 | > 100 | > 63.4 | 4.93 | > 100 | – | – | – | – | – | – | – | – | – | –
4 | COc1cc2nc(N3CCC[C@H](NC4=CC(=O)c5ccccc5C4=O)C3)nc(N)c2cc1OC | – | – | 3.5 | – | 3.3 | 4.13 | 5.44 | – | 3.94 | 2.94 | 1.97 | 1.63 | 1.99 | 2.34 | 0.28 | 2.18 | – | – | –
5 | O=C(Nc1ccc(-n2cc(-c3ccncc3)c(-c3ccc(O)c(Cl)c3)n2)cc1)c1ccc(Cl)c(C(F)(F)F)c1 | – | – | > 50 | 6.71 | 1.56 | > 50 | > 50 | 3.32 | 34.5 | 13 | 2.82 | 0.735 | 2.55 | 2.57 | 1.68 | 4.87 | 1.45 | 1.22 | –
6 | COc1ccc(OC)c2c(C)ccnc12 | > 100 | > 100 | > 100 | > 74.3 | > 100 | > 96.1 | 67.4 | > 100 | > 92.5 | – | – | – | – | – | – | – | – | – | –
7 | Cn1c2ccccc2n2c3ncccc3c(=O)cc12 | > 100 | > 100 | – | > 100 | > 100 | > 100 | > 100 | – | > 100 | – | – | – | – | – | – | – | – | – | –
8 | CCOC(=O)CCC(NC(=O)C(Cc1ccc([N+](=O)[O-])cc1)NC(=O)OC(C)(C)C)C(=O)NC(CCC(=O)OCC)C(=O)OCC (stereo unspecified) (Boc-[Phe(4-NO2)]-Glu(OEt)-Glu(OEt)-OEt; configuration not given here) | 30.5 | 45.1 | 30.9 | 35 | > 100 | 31.8 | – | 25.9 | – | 9.38 | – | – | – | – | – | – | – | – | –
9 | COc1cc(S(=O)(=O)Nc2ccc(-c3csc(N4C(=O)C(Cl)C4c4ccccc4O)n3)cc2)ccc1Cl (stereo unspecified) | > 100 | > 100 | 38.5 | > 100 | – | 80.5 | > 100 | > 100 | 88.6 | 52 | – | – | – | – | – | – | – | – | –
10 | O=C(O)Cn1c2c(c3c1-c1ccccc1C3=O)C(=O)CCC2 | – | > 100 | > 100 | > 100 | > 100 | > 100 | > 100 | > 100 | > 100 | – | > 100 | > 100 | > 100 | > 100 | – | > 100 | > 100 | > 100 | > 100
11 | O=c1[nH]nc(-c2ccccc2)c2[nH]c3c(c12)Cc1ccccc1-3 | > 100 | > 100 | > 100 | > 41.6 | – | > 100 | > 100 | > 100 | > 100 | – | – | – | – | – | – | – | – | – | –
12 | COc1cccc(C(C#N)NNC(=O)c2c(Cl)c(Cl)c(Cl)c(Cl)c2-c2nc3ccc(C(=O)c4ccccc4)cc3[nH]2)c1O (stereo unspecified) | > 100 | > 100 | – | – | > 100 | > 100 | – | 29.4 | > 100 | > 100 | – | – | – | – | – | – | – | – | –
13 | CCC1=C(C[C@H]2NCCc3cc(OC)c(OC)cc32)C[C@H]2c3cc(OC)c(OC)cc3CCN2C1 | 0.107 | – | 0.0964 | 0.637 | – | 0.0532 | – | 0.0713 | 0.365 | 55.1 | – | – | – | – | – | – | – | – | –
14 | Cc1ccc(-n2nncc2[Si](C)(C)C)s1 | > 100 | > 100 | > 100 | > 100 | > 100 | > 100 | > 100 | > 100 | > 100 | – | – | – | – | – | – | – | – | – | –
15 | Cc1cc2c(=O)c3ccc(Cl)cc3[nH]c2c(C(N)=O)c1C | > 100 | – | > 100 | > 100 | – | > 100 | – | > 100 | > 100 | – | – | – | – | – | – | – | – | – | –
16 | Oc1ccc2ccccc2c1OCc1nnc(CCCCCCCCc2nnc(COc3c(O)ccc4ccccc34)n2Nc2ccccc2)n1Nc1ccccc1 | 58.7 | 77.7 | 31 | 56.2 | 61.1 | > 75.2 | 56.9 | > 76.6 | > 80 | – | – | – | – | – | – | – | – | – | –
17 | Cc1cc2nc3ccccc3n2c2ccccc12 | > 10 | – | > 10 | > 10 | > 10 | > 10 | > 10 | > 10 | > 10 | > 10 | – | – | – | – | – | – | – | – | –

Row | SMILES | TGI [1] [µM] | TGI [2] [µM] | TGI [3] [µM] | TGI [4] [µM] | TGI [5] [µM] | TGI [6] [µM] | TGI [7] [µM] | TGI [8] [µM] | TGI [9] [µM] | TGI [10] [µM] | GI50 [3] [µM] | GI50 [5] [µM] | GI50 [6] [µM] | GI50 [7] [µM] | GI50 [10] [µM] | GI50 [9] [µM] | GI50 [4] [µM] | GI50 [8] [µM] | GI50 [2] [µM]
18 | Nc1ccc2c(=O)cc(-c3ccc(Br)s3)[nH]c2n1 | > 100 | – | 29.7 | > 100 | > 94.8 | > 23.4 | > 26.9 | > 100 | > 100 | > 51.1 | – | – | – | – | – | – | – | – | –
19 | O=C1c2ccncc2C(=O)c2c(O)ccc(O)c21 | 19.2 | – | 16.3 | 5.44 | – | – | – | – | – | 52.3 | – | – | – | – | – | – | – | – | –
20 | CCOc1ccc2nc3nc(=O)[nH]c(C)c3c(NC(C)(CO)CO)c2c1 | > 100 | > 100 | > 100 | > 100 | > 100 | > 100 | > 100 | > 100 | > 100 | – | – | – | – | – | – | – | – | – | –
21 | CC(=O)/C=C/c1ccccc1 | 49.1 | – | > 100 | > 100 | > 100 | 85.5 | > 100 | > 100 | > 100 | 53 | – | – | – | – | – | – | – | – | –
22 | Oc1c(Cl)cc2cc1-c1cc(cc(Cl)c1O)CCc1c(cc(Cl)c(O)c1Cl)-c1cc(Cl)c(c(Cl)c1O)/C=C\2 | 16.6 | > 50 | 13.9 | – | – | 33.6 | 30.8 | 17.5 | 35.8 | > 50 | – | – | – | – | – | – | – | – | –
23 | COc1cccc2c1OC1c3ccccc3OCC1(O)C2 (stereo unspecified) | > 100 | > 100 | > 100 | > 100 | > 100 | > 100 | > 100 | > 100 | > 100 | – | – | – | – | – | – | – | – | – | –
24 | COc1ccc(/C=c2\[nH]c3nc(=O)c(N4CCCCC4)c(N)n3c2=O)cc1 | > 100 | – | > 100 | > 100 | > 100 | > 100 | > 100 | – | > 100 | > 100 | – | – | – | – | – | – | – | – | –
25 | C=CC(C)(C)/C=C/c1ccc(O)cc1 | > 100 | > 100 | 79.9 | > 100 | > 100 | > 100 | > 100 | 60.5 | > 100 | – | – | – | – | – | – | – | – | – | –
26 | CC/C=C/c1cc2c(cc1O)CCC1C2CC[C@@]2(C)C1CC[C@@H]2O (stereo partly specified) | 13.8 | – | 33.2 | 15.8 | 18.1 | 20.2 | 5.67 | 6.29 | 25.2 | 0.817 | – | – | – | – | – | – | – | – | –
27 | O=C1N2CCC[C@H]2CS1(=O)=O | 23.1 | 30.2 | 32.2 | 28.3 | 29.6 | 34 | > 100 | 34.4 | 37.4 | – | – | – | – | – | – | – | – | – | –
28 | Cc1ccc(N2C(=O)C3CSCN3C2=O)cc1 (stereo unspecified) | – | – | > 100 | > 100 | – | > 100 | > 100 | > 100 | > 100 | – | – | – | – | – | – | – | > 100 | – | –
29 | C=C(Br)C[N+]12CN3CN(CN(C3)C1)C2 | > 100 | – | > 100 | > 100 | > 100 | > 100 | > 100 | > 100 | > 100 | > 100 | – | – | – | – | – | – | – | – | –
30 | CC(C)[C@H](C)/C=C/[C@@H](C)C1CC[C@H]2[C@@]34C=C[C@]5(C[C@@H](O)CC[C@]5(C)[C@H]3CC[C@]12C)OO4 (stereo partly specified) | 47.7 | 92.7 | 50.9 | – | 84.9 | 92.5 | 50.2 | 88.8 | > 100 | – | – | – | – | – | – | – | – | – | –
31 | CC(C)(C)OC(=O)C(C#N)C(=O)c1ccc(C(=O)O)[nH]1 (stereo unspecified) | > 100 | > 100 | – | > 100 | > 100 | > 100 | 38.5 | 68.5 | > 100 | – | – | – | – | – | – | – | – | – | –
32 | C=C(CN(CC)CC)C1(c2ccccc2)CC2(CCCC2)C(=O)O1 (stereo unspecified) | > 100 | – | > 100 | > 100 | > 100 | 98.9 | 84.4 | > 100 | 98.9 | > 100 | – | – | – | – | – | – | – | – | –
33 | CCOC(=O)c1cc2c3c(c(C(C)=O)c(OC)c2[nH]1)N(C(=O)CC)CC3 | 34.9 | 47.1 | 76.5 | 35.8 | 40.9 | 25 | 31 | 48.3 | 49.4 | – | – | – | – | – | – | – | – | – | –
